These are literature values, as cited in paper PMC7998589, “A Radiobrominated Tyrosine Kinase Inhibitor for EGFR with L858R/T790M Mutations in Lung Carcinoma” (Pharmaceuticals, 2021).

A word on the IC50: it is the concentration that inhibits the measured activity by half.

Parameters in all cases: method as in PMID 32599930
For one data set, the system named is H441 (wild-type EGFR). Particulars: WST-8, ref [9]; cited from earlier work. On the technique in general: Tetrazolium dyes change colour on reduction, which living cells bring about.
Another data set has as its system H3255 (EGFR L858R). The following applies: WST-8, ref [9]; cited from earlier work.
The test system of the next data set is H1975 (EGFR L858R/T790M). Particulars: WST-8, ref [9]; cited from earlier work.
A further data set has as its system EGFR L858R/T790M. The following applies: ref [9]; cited from earlier work.

As for `C=CC(=O)Nc1cccc(Nc2nc(Nc3ccc(N4CCN(C(C)=O)CC4)cc3OC)ncc2C(F)(F)F)c1` [CO-1686, rociletinib], the figures for the IC50 with H441 (wild-type EGFR), with H3255 (EGFR L858R) and with H1975 (EGFR L858R/T790M) were 260 ± 40 nM, 150 ± 20 nM and 140 ± 50 nM, respectively. Moreover, the “selectivity toward EGFR L858R/T790M compared with wild-type EGFR” value in the data set with EGFR L858R/T790M is on record as “high selectivity”.
